Patent US7109175B1, “Specific steady-state R-type CA2+ channel blockers and use thereof” (Universite de Sherbrooke, priority 2000, dated 2006)
Entries after “also recorded” stand apart in the source; their conditions may differ.

Assays:
L-type Ca^2+ current = assay: Whole-cell voltage clamp, L-type Ca2+ current in heart cells of chick embryos; type: cell-based; conditions: for overall effect on L-type Ca2+ channel: summary in words
Description: Single cells of different types in culture were prepared from biopsies of human, chick and rabbit. Known and accepted methods for the isolation of fast Na^+ current, T, L and R-type Ca^2+ channels as well as delayed outward K^+ current were used (Bkaily 1994, supra).
The compounds to be tested are added to the appropriate extracellular solution after recording a stable ionic current or normal steady-state level of […]. The effect of different concentrations of compounds are tested on the different type of current and [Ca]i of the different cell types. The effect of each concentration of the compounds in function of the time of exposure are then determined. Once the steady-state effect is reached, the second concentration is added, etc.
In another series of experiments (n=5), the effect of different concentrations of MV8608 (10^−11 to 10^−6M) were tested on the L-type ICa of heart cells of chick embryos using the whole-cell and experimental conditions and protocols described elsewhere by the inventors (Bkaily G. et al., 1993, supra). As for the T-type ICa, the L-type ICa was not affected by 10^−11 to 10^−10M MV8608.
In another series of experiments (n=4), we tested the effect of MV8612 on the L-type Ca^2+ current (ICa) in chick embryonic heart cells using the whole-cell voltage clamp technique referred to above. Superfusion with 10^−9M of MV8612 decreased ICa amplitude by 10% and increasing the concentration of the compound up to 10^−8M further decreased the current amplitude by 25%. Higher concentration of MV8612 (10^−7M) decreased the ICa amplitude by 62%.

R-type Ca^2+ channel [1] = assay: Fura-2 total [Ca]i, R-type channel stimulation-induced sustained increase, pooled cell types; type: cell-based, chick, human, rabbit
Source text: (§1) This sustained increase of Ca^2+ induced by depolarization of the cell membrane or hormones such as PAF, ET-1 and bradykinin is due to the increase of Ca^2+ influx through the R-type Ca^2+ channels at the sarcolemmal membrane and/or the nuclear membrane (Bkaily G., 1994, supra; 1996, supra; 1997a–d, supra). Using Ca^2+ fluorescence probes Fura-2 or Fluo-3 and 2 and three-dimension Ca^2+ imaging techniques (Bkaily G., 1994, supra; 1996, supra; 1997a–d, supra), the effect of hormones and drugs could be easily tested. These two methods are used with single cells of different types as described above.
(§2) In another series of experiments we tested the effect of MV8608 (10^−9M) on R-type Ca^2+ channels stimulation-induced sustained increase of total intracellular Ca^2+ by sustained depolarization (FIGS. 15 to 19), by PAF (10^−9M) (FIGS. 16 to 19 and 21 to 22), by ET-1 (10^−9M) (FIGS. 16 and 19) and bradykinin (BK, 10^−6M) (FIGS. 20 and 21), in embryonic chick heart cells (FIGS. 15, 16, 19 and 20), 19-week-old human fetal heart cells (FIGS. 15, 17, 18 and 20), rabbit aortic vascular smooth muscle (VSM) cells (FIGS. 20 and 21), human aortic VSM cell-line (FIG. 23) and freshly isolated (FIG. 22) as well as in freshly isolated aortic endothelial cells (FIG. 22).
Using Fura-2 [Ca]i measurement technique, in one series of experiments we tested the effect of MV8612 (10^−9M) on the stimulation of R-type Ca^2+-induced sustained increase of [Ca]i by sustained depolarization (FIGS. 26 and 27), PAF (10^−9M, FIG. 34) and ET-1 (FIGS. 33 and 34).

R-type Ca^2+ channel [2] = assay: Fura-2 [Ca]i, embryonic chick heart cells; type: cell-based; conditions: 10^−9M, sustained depolarization (KCl 30 mM), PAF 10^−9M, ET-1 10^−9M
Source text: as §1
as §2, with “22). […]” for “22).”

R-type Ca^2+ channel [3] = assay: Fura-2 [Ca]i, rabbit aortic vascular smooth muscle cells; type: cell-based; conditions: 10^−9M
Source text: as §1
as §2, with “22). […]” for “22).”

R-type Ca^2+ channel [4] = assay: Confocal Fluo-3 3-dimension measurement of [Ca]c and [Ca]n, chick heart cells and human aortic VSM cell line; type: cell-based; conditions: for sustained increase of [Ca]c and [Ca]n induced by high PAF: PAF 10^−7M; for sustained depolarization induced sustained increase of [Ca]c and [Ca]n: heart cells, FIG. 29 panel A; for prevention of sustained increase of [Ca]c and [Ca]n: chick heart cells and human aortic VSM cell line
rat paw oedema = assay: Rat paw oedema; type: in vivo; conditions: for des-Arg^9-bradykinin-induced paw oedema: 10 and 100 nmol/paw co-injected, rats treated with LPS
Description: (§3) In this experiment (N=5 to 6 animals per group), the anti-oedemagenic action of compounds MV 8608 and MV 8612 against bradykinin and several mediators which are reported to be involved in the inflammatory processes, was evaluated. The procedures used to perform these experiments have been reported elsewhere (Neves et al., 1993, Eur. J. Pharmacol. 243:213–219; Campos et al., 1995, Br. J. Pharmacol. 114:1005–1013; Campos et al., 1996, Br. J. Pharmacol. 117:793–798; Eur. J. Pharmacol. 316:227–286). […] As reported previously, in rats treated […] prior to a systemic injection of LPS, both B1 and B2 kinin selective agonists caused marked oedema formation (FIGS. 37C and D (Campos et al., 1996, supra)).

mouse paw oedema = assay: Mouse paw oedema; type: in vivo, mice
Description: as §3
When tested in mice, MV 8612 (40 to 160 nmol/paw) inhibited bradykinin and carrageenan-induced paw oedema in mice in a dose-dependent manner (FIGS. 46A and B).

[5] = tested on: human lymphocyte proliferation; assay: Human lymphocyte proliferation in vitro; type: cell-based; conditions: for inhibition of human lymphocyte proliferation: MV 8612 0.02 to 0.32 M, MV 8608 14.5 to 116 M
Description: In a separate series of experiments, compounds MV 8612 and MV 8608 were tested to analyze whether they interfered with human lymphocyte proliferation “in vitro”. These experiments were carried out as reported previously (Moraes et al., 1996, Eur. J. Pharmacol. 312:333–339).

[6] = sustained depolarization and PAF 10^−7M
[7] = 100 nmol/paw, rats treated 30 days prior
[8] = 40 to 160 nmol/paw co-injection

## C[C@]12CC[C@H](O)CC1=CC[C@@H]1[C@@H]2CC[C@]2(C)[C@H]3[C@@H]4OC[C@H]3O[C@@H](O)[C@]12O4 [MV8608, (15R, 16R, 20S)-14, 16:15,20:16,21-triepoxi-15,16-seco 14β, 17α-pregn-5-ene-3β, 15-diol]
L-type Ca^2+ current; 5×10^−7M
  change of L-type ICa amplitude effect at higher concentration: further slight increase
L-type Ca^2+ current; 10^−9M
  decrease of L-type ICa amplitude: 10%
L-type Ca^2+ current; 10^−11 to 10^−10M
  effect on L-type ICa: not affected
L-type Ca^2+ current
  overall effect on L-type Ca2+ channel: very weak depressor; also recorded: relative weak depressing effect
R-type Ca^2+ channel [1]; 10^−9M
  time to complete block of sustained increase of [Ca]i: 4 to 5 min
R-type Ca^2+ channel [1]; 10^−9M, sustained depolarization, ET-1 10^−9M, PAF 10^−9M, BK 10^−6M
  sustained increase of [Ca]i via activation of R-type Ca2+ channel: completely blocked; also recorded: blockade
R-type Ca^2+ channel [1]; incl. MG63, FAOS-2, human VSM, endothelial cells, T-lymphocytes, platelets, AOSMC-9
  block of R-type Ca2+ channel across cell types: blocked the R-type Ca^2+ channel in all cell types used
R-type Ca^2+ channel [2]
  sustained increase of [Ca]i: blockade
R-type Ca^2+ channel [3]; BK 10^−6M and PAF 10^−9M
  sustained increase of [Ca]i: blockade
R-type Ca^2+ channel [4]; 10^−7M, KCl 30 mM and PAF, nifedipine present
  cytosolic and nuclear Ca2+ sustained overload: blocked both the cytosolic and nuclear Ca^2+ sustained overload
R-type Ca^2+ channel [4]; 10^−8 M and 10^−7 M
  prevention of depolarization-induced stimulation of R-type channel ([Ca]c, [Ca]n): prevented the stimulation of the R-type Ca^2+ channel
R-type Ca^2+ channel [4]; PAF 10^−7 M, 10^−9M
  prevention of high PAF action: succeeded in preventing the high PAF action
R-type Ca^2+ channel [4]; MV8608 10^−6M
  sustained increase of [Ca]c and [Ca]n induced by high PAF: significantly decrease; also recorded: blocked
R-type Ca^2+ channel [4]
  sustained depolarization induced sustained increase of [Ca]c and [Ca]n: blocked completely
R-type Ca^2+ channel [4]; [6]
  prevention of sustained increase of [Ca]c and [Ca]n: preventive effect
Rat paw oedema; 100 nmol/paw
  PAF-induced paw oedema: consistently inhibited
  PGE2-induced paw oedema: partially inhibited
  substance P-induced paw oedema: unaffected
Rat paw oedema; [7]
  bradykinin-induced paw oedema: significantly inhibited
  des-Arg^9-BK-induced paw oedema: significantly inhibited
Rat paw oedema; 10 and 100 nmol/paw
  carrageenan-induced paw oedema: significantly prevented
  dextran-induced paw oedema: significantly prevented
  histamine-induced paw oedema: significantly prevented
  potentiation of paw oedema by low dose des-Arg^9-BK plus PAF: prevented the potentiation
  potentiation of paw oedema by low dose des-Arg^9-BK plus PGE2: prevented the potentiation
  serotonin-induced paw oedema: significantly prevented
Rat paw oedema
  des-Arg^9-bradykinin-induced paw oedema: dose-related inhibition
Rat paw oedema; 10 and 100 nmol/paw, actively sensitised animals
  ovalbumin-induced paw oedema: inhibited significantly
Rat paw oedema; 10 and 100 nmol/paw, animals treated with LPS
  bradykinin-induced hindpaw oedema: no significant effect
Mouse paw oedema; 7.5 and 15, i.p.
  histamine-induced paw oedema: dose-related inhibition
  serotonin-induced paw oedema: dose-related inhibition
Mouse paw oedema; 7.5 and 15, i.p., 30 min prior
  bradykinin-induced paw oedema: unaffected
[5]
  inhibition of human lymphocyte proliferation: graded inhibition

## COC1CC(OC2C(C)OC(O[C@H]3CC[C@@]4(C)C(=CC[C@@H]5[C@@H]4CC[C@]4(C)[C@H]6[C@@H]7OC[C@H]6O[C@@H](O)[C@]54O7)C3)CC2OC)OC(C)C1OC1CC(OC)C(OC2CC(OC)C(OC3OC(C)C(OC(C)=O)C(OC)C3OC(C)=O)C(C)O2)C(C)O1 (stereo partly shown) [MV8612]
L-type Ca^2+ current; 10^−7M
  decrease of L-type ICa amplitude: 62%
L-type Ca^2+ current; 10^−8M
  decrease of L-type ICa amplitude: 25%
L-type Ca^2+ current; 10^−9M
  decrease of L-type ICa amplitude: 10%
L-type Ca^2+ current
  overall effect on L-type Ca2+ channel: more potent L-type Ca^2+ channel antagonist properties than that of MV8608
R-type Ca^2+ channel [1]; 10^−9M, PAF 10^−9M, ET-1
  sustained increase of [Ca]i induced by sustained depolarization and hormones: significantly decreased
R-type Ca^2+ channel [2]
  sustained increase of [Ca]i: blockade
R-type Ca^2+ channel [3]; sustained depolarization and ET-1 10^−9M
  sustained increase of [Ca]i: blockade
R-type Ca^2+ channel [4]; MV8612 10^−8M
  sustained increase of [Ca]c and [Ca]n induced by high PAF: blocked
R-type Ca^2+ channel [4]
  sustained depolarization induced sustained increase of [Ca]c and [Ca]n: blocked completely
R-type Ca^2+ channel [4]; [6]
  potency of blocking sustained increase of [Ca]c and [Ca]n, comparison: more potent blocker than MV8608
  potency of preventing stimulation of R-type channel, comparison: equipotent in preventing
  prevention of sustained increase of [Ca]c and [Ca]n: preventive effect
Rat paw oedema; 10 nmol/paw
  oedema by bradykinin plus PAF: did not interfere
  oedema by low dose bradykinin plus PGE2: significantly inhibited
  oedema by low dose bradykinin plus calcitonin gene related peptide: significantly inhibited
  oedema by low dose bradykinin plus prostacyclin: significantly inhibited
Rat paw oedema; 10 and 100 nmol/paw
  PAF-mediated paw oedema: only a minimal inhibition
  PGE2-induced paw oedema: dose-dependently inhibited
  bradykinin-induced paw oedema: significantly inhibited
  carrageenan-induced paw oedema: dose-dependently inhibited
  substance P-mediated paw oedema: only a minimal inhibition
  tyr^8-bradykinin-induced paw oedema: significantly inhibited
Rat paw oedema
  des-Arg^9-bradykinin-induced paw oedema: no significant effect
Rat paw oedema; intraperitoneal injection (FIG. 44)
  bradykinin-induced oedema in animals treated with cyprohetadine or compound 48/80: dose-related inhibition was still observed
Rat paw oedema; subplantar
  duration of inhibition of bradykinin oedema: at least 2 h
  onset of inhibition of bradykinin oedema: 30 min
Rat paw oedema; systemic effect of subplantar injection
  bradykinin oedema in controlateral paw treated with saline: significant anti-oedemagenic action
Mouse paw oedema; 7.5 and 15, i.p.
  histamine-induced paw oedema: no significant effect
  serotonin-induced paw oedema: no significant effect
Mouse paw oedema; 7.5 and 15, i.p., 30 min prior
  bradykinin-induced paw oedema: dose-dependent inhibition
  cellulose sulphate-induced paw oedema: dose-dependent inhibition
Mouse paw oedema; 40 to 160 nmol/paw
  PAF-acether-induced oedema: failed to affect significantly
  serotonin-induced oedema: failed to affect significantly
Mouse paw oedema; [8]
  bradykinin-induced paw oedema: inhibited
  carrageenan-induced paw oedema: inhibited
[5]
  inhibition of human lymphocyte proliferation: graded inhibition
[5]; more potent
  potency ratio MV 8612 versus MV 8608, lymphocyte proliferation: about 570 fold
